{
  "source": "patent US7732483B2",
  "about": "“DNA-PK inhibitors” (Kudos Pharmaceuticals Limited, priority 2004, dated 2010)",
  "origin": "cited, not measured here",
  "test_system": "cells",
  "conditions": "Rosenzweig et al. 1999",
  "data": [
    {"smiles": "O=c1cc(N2CCOCC2)oc2c(-c3ccccc3)cccc12", "note": "[LY294002]", "values": [
      {"measurement": "sensitisation of cells to the effects of IR", "value": "weakly sensitise cells to the effects of IR"}
    ]}
  ]
}
